Assay results taken from ChEMBL document CHEMBL1909046, “DrugMatrix in vitro pharmacology data”.
Where a SMILES comes first, the peptide text is derived from it. Bridges are numbered along the chain shown (N, C = ends). [ ]: non-standard residue; d: D form. The star is where a group is joined. Threoninol(2S,3R) = C[C@@H](O)[C@H](CO)N*

Experiments:
[1] = biological target: T1, Cysteinyl leukotriene receptor 1 (Homo sapiens, UniProt Q9Y271); assay type: cell membranes, CHO-K1, Membrane; details: cho-k1; further: in other assays of this panel Not Active means under 50% inhibition at 10 µM
T1 sequence (Q9Y271 whole entry): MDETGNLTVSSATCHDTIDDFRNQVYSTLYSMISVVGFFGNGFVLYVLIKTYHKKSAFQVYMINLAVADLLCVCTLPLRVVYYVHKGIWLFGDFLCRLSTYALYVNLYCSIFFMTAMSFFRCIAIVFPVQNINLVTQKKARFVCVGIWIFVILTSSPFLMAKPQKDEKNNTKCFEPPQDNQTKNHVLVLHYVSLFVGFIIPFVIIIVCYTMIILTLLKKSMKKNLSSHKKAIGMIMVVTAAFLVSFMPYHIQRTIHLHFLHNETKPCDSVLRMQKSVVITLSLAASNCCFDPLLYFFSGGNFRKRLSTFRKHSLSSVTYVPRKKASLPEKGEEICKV

[2] = biological target: T2, C-X-C chemokine receptor type 2 (Homo sapiens, UniProt P25025); assay type: cell membranes, Membrane; details: cho-k1; further: in other assays of this panel Not Active means under 50% inhibition at 10 µM
T2 sequence (P25025 whole entry): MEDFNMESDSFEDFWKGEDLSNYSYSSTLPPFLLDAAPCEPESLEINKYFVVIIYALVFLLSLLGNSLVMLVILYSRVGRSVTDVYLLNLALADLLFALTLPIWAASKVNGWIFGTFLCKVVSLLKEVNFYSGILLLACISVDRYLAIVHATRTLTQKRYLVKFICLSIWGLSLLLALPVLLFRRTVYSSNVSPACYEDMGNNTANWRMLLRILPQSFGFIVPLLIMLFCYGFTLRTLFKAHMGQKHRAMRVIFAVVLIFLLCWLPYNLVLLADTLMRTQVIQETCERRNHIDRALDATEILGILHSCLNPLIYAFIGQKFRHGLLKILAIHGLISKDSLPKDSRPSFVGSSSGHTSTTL

[3] = biological target: Cytochrome P450 2C19 (Homo sapiens, UniProt P33261); details: bti-tn-5b1-4; further: in other assays of this panel Not Active means under 50% inhibition at 10 µM
[4] = biological target: T3, Interstitial collagenase (Homo sapiens, UniProt P03956); assay: biochemical; assay type: tissue-based, Rheumatoid synovial fibroblasts;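 further: MMP-1 enzyme inhibition assay using a peptide substrate; in other assays of this panel Not Active means under 50% inhibition at 10 µM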
T3 sequence (P03956 whole entry): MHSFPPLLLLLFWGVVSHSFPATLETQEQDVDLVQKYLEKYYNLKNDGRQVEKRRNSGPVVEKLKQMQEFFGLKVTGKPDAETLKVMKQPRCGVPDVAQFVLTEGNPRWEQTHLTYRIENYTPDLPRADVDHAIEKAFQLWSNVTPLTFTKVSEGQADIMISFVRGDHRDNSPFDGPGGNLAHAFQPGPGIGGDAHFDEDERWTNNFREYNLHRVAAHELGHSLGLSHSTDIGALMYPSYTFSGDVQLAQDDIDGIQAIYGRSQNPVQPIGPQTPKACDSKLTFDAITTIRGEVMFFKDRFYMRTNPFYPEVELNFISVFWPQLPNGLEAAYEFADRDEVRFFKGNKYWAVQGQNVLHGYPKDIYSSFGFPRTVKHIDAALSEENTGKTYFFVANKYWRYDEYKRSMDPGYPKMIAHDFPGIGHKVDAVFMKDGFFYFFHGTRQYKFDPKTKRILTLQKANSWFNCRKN

[5] = DRUGMATRIX: Phosphodiesterase PDE4 enzyme inhibition (substrate: [3H]cAMP + cAMP); details: u-937; Not Active = under 50% inhibition at 10 µM
[6] = biological target: Tyrosine-protein kinase Fyn (Homo sapiens, UniProt P06241); assay: biochemical; assay type: cell-based, Insect cells; details: insect cells
[7] = DRUGMATRIX: Leukotriene, BLT (LTB4) radioligand binding (ligand: [3H]LTB4); assay type: cell membranes, Membrane; details: u-937; Not Active = under 50% inhibition at 10 µM

Tyrosine-protein kinase Fyn, sequence (P06241 whole entry): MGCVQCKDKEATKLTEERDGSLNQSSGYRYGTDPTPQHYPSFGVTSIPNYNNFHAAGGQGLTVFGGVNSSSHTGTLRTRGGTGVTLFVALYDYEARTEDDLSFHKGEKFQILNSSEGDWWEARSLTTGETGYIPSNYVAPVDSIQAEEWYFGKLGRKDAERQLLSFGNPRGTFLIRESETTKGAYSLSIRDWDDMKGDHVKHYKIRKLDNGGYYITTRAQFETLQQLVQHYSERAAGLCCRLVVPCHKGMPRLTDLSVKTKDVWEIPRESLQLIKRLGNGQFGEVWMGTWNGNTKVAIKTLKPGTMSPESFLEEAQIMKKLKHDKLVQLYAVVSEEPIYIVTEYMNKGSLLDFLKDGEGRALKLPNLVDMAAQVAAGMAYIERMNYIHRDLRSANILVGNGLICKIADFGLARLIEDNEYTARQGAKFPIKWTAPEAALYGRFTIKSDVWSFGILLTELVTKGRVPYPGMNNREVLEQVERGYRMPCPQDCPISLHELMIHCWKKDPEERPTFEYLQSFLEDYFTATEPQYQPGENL
Cytochrome P450 2C19, sequence (P33261 whole entry): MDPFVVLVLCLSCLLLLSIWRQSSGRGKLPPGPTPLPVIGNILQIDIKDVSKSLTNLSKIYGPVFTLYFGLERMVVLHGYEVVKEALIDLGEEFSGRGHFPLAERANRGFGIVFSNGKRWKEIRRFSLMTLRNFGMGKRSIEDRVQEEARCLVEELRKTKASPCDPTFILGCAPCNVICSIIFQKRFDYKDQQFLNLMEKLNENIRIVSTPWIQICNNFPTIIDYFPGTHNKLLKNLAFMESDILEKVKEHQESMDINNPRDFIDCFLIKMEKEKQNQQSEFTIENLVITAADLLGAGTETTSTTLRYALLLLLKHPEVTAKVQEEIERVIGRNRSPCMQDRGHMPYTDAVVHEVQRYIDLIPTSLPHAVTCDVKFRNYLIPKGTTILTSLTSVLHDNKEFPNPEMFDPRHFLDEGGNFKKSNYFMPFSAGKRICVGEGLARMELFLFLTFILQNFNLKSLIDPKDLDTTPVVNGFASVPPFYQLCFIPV

O=C1CC[C@H](N2C(=O)c3ccccc3C2=O)C(=O)N1
Not Active: IC50 [1] | IC50 [2] | IC50 [3] | Ki [3] | IC50 [4] | IC50 [5] | Ki [5] | IC50 [6] | IC50 [7] | Ki [7]

C[C@@H](O)[C@H](CO)NC(=O)[C@@H]1CSSC[C@H](NC(=O)[C@H](N)Cc2ccccc2)C(=O)N[C@@H](Cc2ccccc2)C(=O)N[C@H](Cc2c[nH]c3ccccc23)C(=O)N[C@@H](CCCCN)C(=O)N[C@@H]([C@@H](C)O)C(=O)N1 (H-[dF]CF[dW]KTC-{Threoninol(2S,3R)}; disulfide 2-7)
Not Active: IC50 [1] | IC50 [2] | IC50 [3] | Ki [3] | IC50 [4] | IC50 [5] | Ki [5] | IC50 [6] | IC50 [7] | Ki [7]

S=C=Nc1cccc2ccccc12 [1-NAPHTHYLISOTHIOCYANATE]
Not Active: IC50 [1] | IC50 [2] | IC50 [3] | Ki [3] | IC50 [4] | IC50 [5] | Ki [5] | IC50 [6] | IC50 [7] | Ki [7]

CCCC(=O)Nc1ccc(OCC(O)CNC(C)C)c(C(C)=O)c1 (centres undefined) [ACEBUTOLOL]
Not Active: IC50 [1] | IC50 [2] | IC50 [3] | Ki [3] | IC50 [4] | IC50 [5] | Ki [5] | IC50 [6] | IC50 [7] | Ki [7]

CC(=O)Nc1ccc(O)cc1 [ACETAMINOPHEN]
Not Active: IC50 [1] | IC50 [2] | IC50 [3] | Ki [3] | IC50 [4] | IC50 [5] | Ki [5] | IC50 [6] | IC50 [7] | Ki [7]

COc1cc2c(c3oc(=O)c4c(c13)CCC4=O)[C@@H]1C=CO[C@@H]1O2 [AFLATOXIN]
Not Active: IC50 [1] | Ki [1] | IC50 [2] | Ki [2] | IC50 [3] | Ki [3] | IC50 [4] | Ki [4] | IC50 [5] | Ki [5] | IC50 [6] | Ki [6] | IC50 [7] | Ki [7]

N=C(N)NC(=O)c1nc(Cl)c(N)nc1N [AMILORIDE]
Not Active: IC50 [1] | IC50 [2] | IC50 [3] | Ki [3] | IC50 [4] | IC50 [5] | Ki [5] | IC50 [6] | IC50 [7] | Ki [7]

Cc1cc(=O)n(-c2ccccc2)n1C [ANTIPYRINE]
Not Active: IC50 [1] | IC50 [2] | IC50 [3] | Ki [3] | IC50 [4] | IC50 [5] | Ki [5] | IC50 [6] | IC50 [7] | Ki [7]

CN1C(=O)COc2c(C(=O)NC3CN4CCC3CC4)cc(Cl)cc21 (centres undefined) [AZASETRON]
Not Active: IC50 [1] | IC50 [2] | IC50 [3] | Ki [3] | IC50 [4] | IC50 [5] | Ki [5] | IC50 [6] | IC50 [7] | Ki [7]

C[C@H]1C[C@H]2[C@@H]3CCC4=CC(=O)C=C[C@]4(C)[C@@]3(Cl)[C@@H](O)C[C@]2(C)[C@@]1(O)C(=O)CO [BECLOMETHASONE]
Not Active: IC50 [1] | IC50 [2] | IC50 [3] | Ki [3] | IC50 [4] | IC50 [5] | Ki [5] | IC50 [6] | IC50 [7] | Ki [7]

CCOC(=O)[C@H](CCc1ccccc1)N[C@H]1CCc2ccccc2N(CC(=O)O)C1=O [BENAZEPRIL]
Not Active: IC50 [1] | IC50 [2] | IC50 [3] | Ki [3] | IC50 [4] | IC50 [5] | Ki [5] | IC50 [6] | IC50 [7] | Ki [7]

Nc1c(CC(=O)O)cccc1C(=O)c1ccc(Br)cc1 [BROMFENAC]
Not Active: IC50 [1] | IC50 [2] | IC50 [3] | Ki [3] | IC50 [4] | IC50 [5] | Ki [5] | IC50 [6] | IC50 [7] | Ki [7]

CCCCN1CCCCC1C(=O)Nc1c(C)cccc1C.Cl (centres undefined) [BUPIVACAINE HYDROCHLORIDE]
Not Active: IC50 [1] | IC50 [2] | IC50 [3] | Ki [3] | IC50 [4] | IC50 [5] | Ki [5] | IC50 [6] | IC50 [7] | Ki [7]

O=C1CC2(CCCC2)CC(=O)N1CCCCN1CCN(c2ncccn2)CC1 [BUSPIRONE]
Not Active: IC50 [1] | IC50 [2] | IC50 [3] | Ki [3] | IC50 [4] | IC50 [5] | Ki [5] | IC50 [6] | IC50 [7] | Ki [7]

C[C@@]12C(=O)OC(=O)[C@]1(C)[C@H]1CC[C@@H]2O1 [CANTHARIDIN]
Not Active: IC50 [1] | IC50 [2] | IC50 [3] | Ki [3] | IC50 [4] | IC50 [5] | Ki [5] | IC50 [6] | IC50 [7] | Ki [7]

ClC(Cl)Cl [CHLOROFORM]
Not Active: IC50 [1] | IC50 [2] | IC50 [3] | Ki [3] | IC50 [4] | IC50 [5] | Ki [5] | IC50 [6] | IC50 [7] | Ki [7]
